One data set relates to A549. Kind of data set: MTT anti-proliferative assay, A549. The following applies: for IC50: Homo sapiens, A549 cell line, MTT; for Selectivity index (A549): SI = Cytotoxicity against Vero cells / Cytotoxicity against A549 cell line. In kind it is cell-based. How it is done: (§1) The cytotoxicity effects of the synthesized candidates were evaluated against A549, Caco-2, HepG2, and MDA-mb-231 cell lines. MTT assay method was applied using the sub-IC50 concentrations of each compound as the treatment dose. Doxorubicin was used as a reference molecule. […] Also, it was noticed that Caco-2 was the most sensitive cell line.
(§2) The synthesized compounds were evaluated for their anti-proliferative activities against A549, Caco-2, HepG2, and MDA-mb-231 cell lines using the MTT assay protocol as described in S.1.2. Section in S1 File.
(§3) Mammalian cell lines culture
(§4) CaCo-2, and A549 cell lines were cultured on DMEM media, meanwhile MDA-MB-231 and hepG-2 cell line were cultured on RBMI media. The cultured media were supplemented with 200 mM L-glutamine, 10.0% fetal bovine serum (Lonza), and 1.0% penicillin/streptomycin. Cells were seeded into 25.0 cm tissue culture flasks and incubated at 37 ◦C in a 5.0% CO 2 incubator for 24 h or till confluency.
(§5) The safety profiles of the tested compounds were checked on one non-cancerous cell line (Vero) to […]
(§6) of 100.0 µl of 6×10^4 cell/ml cells was seeded in to each well of a 96-well plate and then the plates were incubated at 37 °C in a humidified 5.0% CO2 incubator for 24 h. At the end of incubation period, the exhausted medium was replaced with 100.0 µl of different concentrations of the designated treatment (prepared in RPMI medium starting from 1.0 mM). The inoculated plates were incubated at the same growth conditions for another 24 h. At the end of incubation, cellular viability was assessed using MTS assay kit (Promega) according to the manual instruction.
(§7) S.1.2. In-vitro anticancer activity
(§8) Anticancer activities of the tested compounds against CaCo-2, MDA-MB-231, and hepG-2 cell lines were quantified using MTS assay kit (Promega) as described by the Manufacturer. […]
(In general: Tetrazolium assays rely on reduction of a dye to a coloured formazan, in cell work by metabolically active cells.)

The subject of the next data set is Caco-2. Kind of data set: MTT anti-proliferative assay, Caco-2. It counts as cell-based. The note with it: Homo sapiens; Caco-2 cell line, MTT; read-out: Anti-proliferative activity (IC50 μM) Caco2. How it is done: as §1, §2, §3, §4, §5, §6, §7, §8
The nature of data set [1]: MTT anti-proliferative assay, Caco-2. The note with it: African green monkey (Vero); human (Caco-2); SI = Cytotoxicity against Vero cells / Cytotoxicity against Caco-2 cell line; read-out: Selectivity index (Caco-2). In kind it is cell-based. How it is done:
as §1, §2, §3, §4, §5, §6, §7, §8

Data set [2] is described as follows: Safety assay: cytotoxicity against Vero non-cancer cell line. In kind it is cell-based. The note with it: African green monkey, Vero cells (non-cancer cell line); Vero normal cell line. How it is done: In this work, the safety pattern of the synthesized derivatives 10a, b and 14a-c was also evaluated by testing their in vitro cytotoxicity against Vero non-cancer cell line using the MTT assay protocol.
Section in S1 File.
Mammalian cell lines culture […]
The cultured media were supplemented with 200 mM L-glutamine, 10.0% fetal bovine serum (Lonza), and 1.0% penicillin/streptomycin. Cells were seeded into 25.0 cm tissue culture flasks and incubated at 37 ◦C in a 5.0% CO 2 incubator for 24 h or till confluency.
as §5
of 100.0 µl of 6×10^4 cell/ml cells was seeded in to each well of a 96-well plate and then the plates were incubated at 37 °C in a humidified 5.0% CO2 incubator for 24 h. At the end of incubation period, the exhausted medium was replaced with 100.0 µl of different concentrations of the designated treatment (prepared in RPMI medium starting from 1.0 mM). The inoculated plates were incubated at the same growth conditions for another 24 h. At the end of incubation, cellular viability was assessed using MTS assay kit (Promega) according to the manual instruction. […]

A further data set relates to HepG2. The experiment in a line: MTT anti-proliferative assay, HepG2. In kind it is cell-based. The following applies: for IC50: Homo sapiens, HepG2 cell line, MTT; for Selectivity index (HepG2): SI = Cytotoxicity against Vero cells / Cytotoxicity against HepG2 cell line. The protocol:
as §1, §2, §3, §4, §5, §6, §7, §8

Another data set relates to MDA-mb-231. The experiment in a line: MTT anti-proliferative assay, MDA-mb-231. It counts as cell-based. The following applies: for IC50: Homo sapiens, MDA-mb-231 cell line, MTT; for Selectivity index (MDA-MB-231): SI = Cytotoxicity against Vero cells / Cytotoxicity against MDA-MB-231 cell line. How it is done:
as §1, §2, §3, §4, §5, §6, §7, §8

The target of the next data set is T1, VEGFR-2 (Homo sapiens, UniProt P35968).
T1 construct: purchased
Kind of data set: In vitro VEGFR-2 inhibition (VEGFR-2 ELISA kit). It counts as biochemical. The note with it: for IC50: ELISA kit; for HillSlope (best-fit value) / LogIC50 (best-fit value): dose-response curve fit, raw data S.5. The protocol:
Compounds 10a, b and 14a-c were evaluated for their VEGFR-2inhibitory activity.
VEGFR-2 ELISA kit was used in this test as described in S.1.3. Section in S1 File. […]
S.1.3. In vitro VEGFR-2 kinase assay
All the synthesized compounds were tested for its inhibitory activity against VEGFR-2. Human VEGFR-2 ELISA kit (Enzyme-Linked Immunosorbent Assay) was utilized in this test. At first, specific antibody for VEGFR-2 was seeded on a 96-well plate and 100 μL of the standard solution or the tested compound was added, all were incubated at room temperature for 2.5 h. Then washed, 100 μL of the prepared biotin antibody was added, then incubated at room temperature for additional 1 h. and washed. Then, 100 μL of streptavidin solution was added and incubated for 45 min. at room temperature. Washed again, 100 μL of TMB Substrate reagent was added and incubated for 30 min. at room temperature. 50 μL of the stop solution was added, then read at 450 nm immediately. The standard curve was drawn, concentrations on the X-axis and the absorbance
A general note: In an ELISA, binding on a coated surface is turned into a signal by an enzyme label.

T1 sequence (P35968 20-1356): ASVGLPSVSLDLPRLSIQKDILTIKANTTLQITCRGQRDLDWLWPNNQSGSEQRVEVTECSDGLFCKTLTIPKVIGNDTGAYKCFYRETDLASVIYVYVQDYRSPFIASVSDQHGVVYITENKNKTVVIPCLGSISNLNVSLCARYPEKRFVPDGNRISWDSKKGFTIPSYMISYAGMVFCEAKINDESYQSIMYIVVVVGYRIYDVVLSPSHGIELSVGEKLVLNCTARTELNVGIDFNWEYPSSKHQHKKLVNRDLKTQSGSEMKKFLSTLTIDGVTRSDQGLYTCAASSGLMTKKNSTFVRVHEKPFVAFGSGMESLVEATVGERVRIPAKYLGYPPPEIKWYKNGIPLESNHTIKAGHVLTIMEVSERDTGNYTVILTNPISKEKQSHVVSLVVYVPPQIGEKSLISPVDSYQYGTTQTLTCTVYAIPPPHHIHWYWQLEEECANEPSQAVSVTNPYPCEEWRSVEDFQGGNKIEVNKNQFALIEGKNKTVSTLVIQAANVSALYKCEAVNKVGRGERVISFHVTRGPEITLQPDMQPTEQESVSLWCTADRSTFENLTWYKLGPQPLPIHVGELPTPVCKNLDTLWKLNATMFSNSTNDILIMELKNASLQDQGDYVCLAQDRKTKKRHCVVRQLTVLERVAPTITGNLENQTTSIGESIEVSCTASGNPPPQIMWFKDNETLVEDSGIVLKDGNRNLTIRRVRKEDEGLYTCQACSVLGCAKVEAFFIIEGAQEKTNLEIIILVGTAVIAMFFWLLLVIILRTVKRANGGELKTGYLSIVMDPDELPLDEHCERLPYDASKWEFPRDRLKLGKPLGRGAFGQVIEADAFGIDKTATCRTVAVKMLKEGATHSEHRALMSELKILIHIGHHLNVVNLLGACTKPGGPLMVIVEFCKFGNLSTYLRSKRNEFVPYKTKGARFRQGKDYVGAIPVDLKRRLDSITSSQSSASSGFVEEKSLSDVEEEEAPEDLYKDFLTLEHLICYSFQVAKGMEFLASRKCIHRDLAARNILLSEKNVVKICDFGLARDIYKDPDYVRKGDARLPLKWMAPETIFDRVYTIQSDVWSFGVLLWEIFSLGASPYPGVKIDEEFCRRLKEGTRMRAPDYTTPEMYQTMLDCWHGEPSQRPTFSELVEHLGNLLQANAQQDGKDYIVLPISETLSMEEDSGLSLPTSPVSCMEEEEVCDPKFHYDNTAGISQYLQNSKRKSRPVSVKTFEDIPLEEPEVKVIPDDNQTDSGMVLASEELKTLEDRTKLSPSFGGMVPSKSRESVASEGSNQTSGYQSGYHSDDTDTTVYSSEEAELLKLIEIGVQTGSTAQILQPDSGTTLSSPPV

One may read the IC50 as the midpoint of a concentration-inhibition curve. Take `O=C(CN1C(=O)SC(=C2C(=O)Nc3ccccc32)C1=O)Nc1cc(Cl)ccc1Cl` [Compound 14b, N-(2,5-Dichlorophenyl)-2-(2,4-dioxo-5-(2-oxoindolin-3-ylidene)thiazolidin-3-yl)acetamide]: in the data set on A549, the half-maximal inhibitory concentration (IC50) turned out to be 292 ± 25.1 µM and the “Selectivity index (A549)” value is on record as 4.340. For the same compound, the concentration for half-maximal inhibition (IC50) in the data set with Caco-2 is 74 ± 6.5 µM. In addition, the selectivity ratio in data set [1] worked out at 17.1. Also, the midpoint of inhibition in data set [2], the IC50 at 24 h, lay at 1270 ± 126 µM. For the same compound, in the data set with HepG2, half-maximal inhibition (IC50) was put at 42.5 ± 3.2 µM and the “Selectivity index (HepG2)” value is given as 29.917. In addition, in the data set with MDA-mb-231, the 50% inhibitory concentration (IC50) was determined as 94.5 ± 8.4 µM and the “Selectivity index (MDA-MB-231)” value was found to be 13.555. At VEGFR-2, the half-maximal inhibitory concentration (IC50) came out at 0.0858 ± 0.0076 µM, the “HillSlope (best-fit value)” value is listed as -0.5620 and the “LogIC50 (best-fit value)” value was 1.934 Log (nM).

Turning to `COc1ccc2[nH]c(=O)c(/C=C3\SC(=O)N(CC(=O)Nc4cc(Cl)ccc4Cl)C3=O)cc2c1` [Compound 10b, (Z)-N-(2,5-Dichlorophenyl)-2-(5-((6-methoxy-2-oxo-1,2-dihydroquinolin-3-yl)methylene)-2,4-dioxothiazolidin-3-yl)acetamide], in the data set on A549, the concentration for half-maximal inhibition (IC50) was 92.5 ± 8.6 µM and the “Selectivity index (A549)” value amounted to 17.080. Besides, the half-inhibitory concentration (IC50) in the data set with Caco-2 was 62.5 ± 5.4 µM. In addition, the selectivity ratio in data set [1] is 25.3. Moreover, the IC50 at 24 h in data set [2] was found to be 1580 ± 155 µM. In the data set on HepG2, the 50% inhibitory concentration (IC50) amounted to 71 ± 6.4 µM and the “Selectivity index (HepG2)” value is 22.250. Besides, in the data set with MDA-mb-231, the IC50 is 31.5 ± 2.5 µM and the “Selectivity index (MDA-MB-231)” value is 51.333. Further, at VEGFR-2, half-maximal inhibition (IC50) was put at 0.165 ± 0.0153 µM, the “HillSlope (best-fit value)” value is -0.3514 and the “LogIC50 (best-fit value)” value is on record as 2.216 Log (nM).

As for `COc1cccc2c1C(=O)c1c(O)c3c(c(O)c1C2=O)C[C@@](O)(C(=O)CO)C[C@@H]3O[C@H]1C[C@H](N)[C@H](O)[C@H](C)O1` [Doxorubicin, reference compound], the concentration for half-maximal inhibition (IC50) in the data set on A549 was 86.4 ± 7.1 µM; in the data set on Caco-2, 3.5 ± 0.22 µM; in the data set on HepG2, 1.2 ± 0.07 µM; in the data set on MDA-mb-231, 0.98 ± 0.001 µM.

On to `COc1ccc2[nH]c(=O)c(/C=C3\SC(=O)N(CC(=O)Nc4ccc(Cl)cc4)C3=O)cc2c1` [Compound 10a, (Z)-N-(4-Chlorophenyl) -2-(5-((6-methoxy-2-oxo-1,2-dihydroquinolin-3-yl)methylene) -2,4-dioxothiazolidin-3-yl)acetamide], for which, in the data set on A549, the IC50 was 85 ± 7.5 µM and the “Selectivity index (A549)” value was 2.280. For the same compound, the half-inhibitory concentration (IC50) in the data set on Caco-2 came to 82.5 ± 7.2 µM. For the same compound, the selectivity ratio in data set [1] was 2.35. In data set [2], this compound returned an IC50 at 24 h of 194 ± 18.2 µM. For the same compound, in the data set on HepG2, the IC50 turned out to be 174 ± 16.3 µM and the “Selectivity index (HepG2)” value is 1.118. Besides, in the data set with MDA-mb-231, half-maximal inhibition (IC50) was put at 132 ± 5.2 µM and the “Selectivity index (MDA-MB-231)” value is recorded as 1.460. For the same compound, on VEGFR-2, half-maximal inhibition (IC50) was put at 0.0652 ± 0.0055 µM, the “HillSlope (best-fit value)” value is given as -0.4587 and the “LogIC50 (best-fit value)” value was 1.814 Log (nM).

Consider `O=C(CN1C(=O)SC(=C2C(=O)Nc3ccccc32)C1=O)NCCc1ccccc1` [Compound 14c, 2-(2,4-Dioxo-5-(2-oxoindolin-3-ylidene)thiazolidin-3-yl)-N-phenethylacetamide], for which, in the data set with A549, half-maximal inhibition (IC50) required 282 ± 27.3 µM and the “Selectivity index (A549)” value stood at 3.463. In the data set on Caco-2, the IC50 turned out to be 192 ± 18.1 µM. Moreover, the selectivity ratio in data set [1] was 5.07. In the data set with HepG2, the IC50 was found to be 92 ± 8.1 µM and the “Selectivity index (HepG2)” value stood at 10.601. In addition, in the data set on MDA-mb-231, the concentration for half-maximal inhibition (IC50) turned out to be 484 ± 47.2 µM and the “Selectivity index (MDA-MB-231)” value was found to be 2.020. On VEGFR-2, the IC50 was determined as 0.0815 ± 0.0073 µM, the “HillSlope (best-fit value)” value is listed as -0.4220 and the “LogIC50 (best-fit value)” value is 1.911 Log (nM).

(Values after article PMC9506633, “Design, synthesis, anti-proliferative evaluation, docking, and MD simulations studies of new thiazolidine-2,4-diones targeting VEGFR-2 and apoptosis pathway” (PLoS ONE, 2022).)
